# How the values were obtained:
# [1] = tested on: THP1 cells; test: Combination drug screening with venetoclax, Cell Titer Glo, THP1; format: cell-based; conditions: compound 0-20 μM, venetoclax 0-2 μM, 10 × 10, 48 h, negative = synergy
# Method: (§1) Combination drug therapy has the potential to produce enhanced effects with lower side effects not obtained using either agent alone, or beyond the additive effect of the different concentrations of the two different agents. To determine whether enhanced effects are observed in different drug combinations, combination drug screening was performed as previously described (Mathews-Griner, L. A. et al., Proc. Nat. Acad. Sci., 2014, 111:2349-2354; Lin, G. L. et al., Sci. Trans. Med., 2019, 11: eaaw0064). Briefly, 10 nL of compounds were acoustically dispensed into 1536-well white polystyrene tissue culture-treated plates with an Echo 550 acoustic liquid handler (Labcyte). Cells were then added to compound-containing plates at a density of 500-cells/well in 5 μL of medium. A 10-point custom concentration range was used for all listed drugs in a 10×10 matrix. Plates were incubated for 48 hours at standard incubator conditions covered by a stainless steel gasketed lid to prevent evaporation. 48 hours post compound addition, 3 μL of Cell Titer Glo (Promega) were added to each well and plates were incubated at room temperature for 15 minutes with the stainless-steel lid in place. Luminescence readings were taken using a Viewlux imager (PerkinElmer) with a 2 second exposure time per plate.
# (§2) Each compound was studied in combination with venetoclax at two concentration ranges of compound and venetoclax, respectively (for a total of 4 combination dose-response curves). The dose combinations that yielded the optimal synergy score, measured as excess HSA, which are reported in Tables 23 and 24 for the FLT3 mutant cell line MOLM14 (D835Y) and the FLT3 WT cell line THP1, respectively.
# (§3) Table 24 provides combination outcomes for representative compounds with venetoclax in the Cell Titer Glo assay in THP1 (FLT3 wild type) cells at 48 hours. The table provides relative excess HSA values for compounds of the disclosure used in combination with venetoclax compared to gilteritinib hemifumarate used in combination with venetoclax. A negative excess HSA score illustrates that the drug combination is better than either drug alone, wherein greater synergy is observed at larger negative values of the excess HSA score.
# (§4) Excess HSA is a measure of synergy vs. additivity or antagonism, wherein a negative excess HSA value is indicative of synergy. More information on excess HSA scores can be found in Vlot, Anna H. C. et al., Drug Discovery Today, 2019, 24(12):2286-2298. […] However, different methodologies may yield different numerical scores, and different definitions of what constitutes a deviation from mere additivity vs true drug synergy. The large negative excess HSA values provided in Tables 23 and 24 illustrate that multiple members of this structural class synergize with venetoclax. The degree to which combination therapy has to potential to produce enhanced effects with lower side effects not obtained using either agent alone, or beyond the additive effect of the different concentrations of the two different agents depends on the nature of the drugs used in the combination, and the specific doses/concentrations at which they are ultimately used in the therapeutic regimen. A negative excess HSA score illustrates that the drug combination is better than either drug alone (at the concentrations being studied). […] However, the utility in certain drug combinations vs. others should not be distinguished based on cutoffs between excess HSA scores, because the score itself is only a relative indicator that is completely dependent on experimental design and is not an absolute number. Furthermore, the concept of what constitutes clinically meaningful drug synergy is something that is still being debated, not only between pharmacologists and physicians, but amongst pharmacologists themselves. […]
# [2] = tested on: MOLM14 (D835Y) cells; test: Combination drug screening with venetoclax, Cell Titer Glo, MOLM14 (D835Y); format: cell-based; parameters: key: relative excess HSA score; more negative = greater synergy; conditions: compound 0-0.5 μM, venetoclax 0-20 μM, 10 × 10, 48 h, negative = synergy
# Method: as §1, §2
# as §3, with “23” for “24”, “MOLM14 (D835Y)” for “THP1 (FLT3 wild type)”, “cells (a FLT3 mutant cell line)” for “cells”
# as §4
# [3] = tested on: Menin-KMT2A (MLL); conditions: pre-clinical studies; cited from earlier work
# [4] = tested on: E-selectin; conditions: with chemotherapy; AML mouse models; cited from earlier work
# [5] = tested on: subjects with myelodysplastic syndrome; conditions: after receiving azacitidine; cited from earlier work
# [6] = tested on: AML cell lines; conditions: combined with a concentration of an exemplary IRAK inhibitor; cited from earlier work
smiles,measurement,setting,value
"CCc1nc(C(N)=O)c(Nc2ccc(N3CCC(N4CCN(C)CC4)CC3)c(OC)c2)nc1NC1CCOCC1 [Gilteritinib hemifumarate, Gilteritinib, reference compound]",Excess HSA,[1],−1626
same,Excess HSA,[2],−1556
CNc1nc(NC2CCN(Cc3ccc4c(cc(C#N)n4C[C@H](C)N4CCN(S(C)(=O)=O)CC4)c3C)CC2)c2cc(CC(F)(F)F)sc2n1 [KO-539],pharmacokinetic properties,[3],excellent pharmacokinetic properties
same,toxicity profile,[3],low toxicity profiles
CCN(C(=O)c1cc(F)ccc1Oc1cncnc1N1CC2(CCN(C[C@H]3CC[C@H](NS(=O)(=O)CC)CC3)CC2)C1)C(C)C [SNDX-5613],pharmacokinetic properties,[3],excellent pharmacokinetic properties
same,toxicity profile,[3],low toxicity profiles
CC[C@H]1C[C@@H](C(=O)NCCNC(=O)CCOCCOCCOCCOCCOCCOCCOCCOCCOCCOCCOCCOC)C[C@@H](O[C@@H]2O[C@H](CO)[C@H](O)[C@H](O[C@@H](CC3CCCCC3)C(=O)O)[C@H]2NC(C)=O)[C@@H]1O[C@@H]1O[C@@H](C)[C@@H](O)[C@@H](O)[C@@H]1O [Uproleselan],duration of mouse survival over chemotherapy alone,[4],doubling the duration of mouse survival over chemotherapy alone
Nc1ncn([C@@H]2O[C@H](CO)[C@@H](O)[C@H]2O)c(=O)n1 [azacitidine],patients who required blood transfusions and no longer needed them,[5],about two-thirds
CC1(C)CCC(CN2CCN(c3ccc(C(=O)NS(=O)(=O)c4ccc(NCC5CCOCC5)c([N+](=O)[O-])c4)c(Oc4cnc5[nH]ccc5c4)c3)CC2)=C(c2ccc(Cl)cc2)C1 [venetoclax],increase of potency of venetoclax,[6],~ 50 -fold

# — patent US20260374773A1, “MULTI-CYCLIC IRAK AND FLT3 INHIBITING COMPOUNDS AND USES THEREOF” (CHILDREN'S HOSPITAL MEDICAL CENTER, priority 2022, published 2026)
